The record followed here is US12404295B2, “(Hetero)aryl-methyl-thio-beta-D-galactopyranoside derivatives” (Idorsia Pharmaceuticals Ltd, priority 2019, dated 2025).

pIC50: −log10 of the molar value.

The target in one assay is human Gal-3 (hGal-3) (Homo sapiens (Human), UniProt P17931). Description: competitive binding assay: biotinylated hGal-3 binding to microplate-adsorbed asialofetuin (ASF). The following applies: Gal-3 inhibition; binding of biotinylated hGal-3 to ASF; mean values; read-out: IC50. The method, then: If not explicitly mentioned otherwise, the inhibition data refer to the binding of biotinylated human Gal-3 (hGal-3).
Chain of human Gal-3 (hGal-3) (P17931 whole entry): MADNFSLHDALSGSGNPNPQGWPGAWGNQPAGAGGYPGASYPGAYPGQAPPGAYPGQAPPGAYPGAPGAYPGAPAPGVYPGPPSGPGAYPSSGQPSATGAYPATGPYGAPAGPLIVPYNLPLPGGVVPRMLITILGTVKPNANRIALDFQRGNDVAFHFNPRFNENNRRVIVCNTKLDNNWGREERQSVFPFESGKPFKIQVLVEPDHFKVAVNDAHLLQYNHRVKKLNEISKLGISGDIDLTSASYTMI
Evaluation of Compound Inhibitory Activity (IC50)
The inhibitory activity of compounds is determined in competitive binding assays.
Briefly, compounds are serially diluted in DMSO (working dilutions).
Plates are incubated for 3 hours at 4° C., then washed with cold assay buffer (3×50 uL), incubated for 1 hour with 25 μL/well of a streptavidin-peroxidase solution (diluted in assay buffer to 80 ng/mL) at 4° C., followed by further washing steps with assay buffer (3×50 uL). Finally, 25 μL/well of ABTS substrate is added.
The calculated IC50 values may fluctuate depending on the daily assay performance. Fluctuations of this kind are known to those skilled in the art. IC50 values from several measurements are given as mean values.
For `COC(=O)N1CC(O)(C(S[C@@H]2O[C@H](CO)[C@H](O)[C@H](n3cc(-c4cc(F)c(F)c(F)c4)nn3)[C@H]2O)c2ccccc2C(F)(F)F)C1` (stereo partly drawn) [Example 2..58.112., Methyl 3-((((2S,3R,4S,5R,6R)-3,5-dihydroxy-6-(hydroxymethyl)-4-(4-(3,4,5-trifluorophenyl)-1H-1,2,3-triazol-1-yl)tetrahydro-2H-pyran-2-yl)thio)(2-(trifluoromethyl)phenyl)methyl)-3-hydroxyazetidine-1-carboxylate], the negative-log IC50 (pIC50) (usually the negative decadic logarithm of the IC50, by convention in mol/L) was 6.40.

With `O=C(NC1CC1)N1CC(O)(C(S[C@@H]2O[C@H](CO)[C@H](O)[C@H](n3cc(-c4cc(F)c(F)c(F)c4)nn3)[C@H]2O)c2ccccc2C(F)(F)F)C1` (stereo partly drawn) [Example 2..59.11.2, N-Cyclopropyl-3-((((2S,3R,4S,5R,6R)-3,5-dihydroxy-6-(hydroxymethyl)-4-(4-(3,4,5-trifluorophenyl)-1H-1,2,3-triazol-1-yl)tetrahydro-2H-pyran-2-yl)thio)(2-(trifluoromethyl)phenyl)methyl)-3-hydroxyazetidine-1-carboxamide], the negative logarithm of the IC50 (pIC50) was 6.54.

As for `OC[C@H](S[C@@H]1O[C@H](CO)[C@H](O)[C@H](n2cc(-c3cc(F)c(F)c(F)c3)nn2)[C@H]1O)c1ccccc1` [Example 2.30.100R., (2S,3R,4S,5R,6R)-2-(((R)-2-Hydroxy-1-phenylethyl)thio)-6-(hydroxymethyl)-4-(4-(3,4,5-trifluorophenyl)-1H-1,2,3-triazol-1-yl)tetrahydro-2H-pyran-3,5-diol], the pIC50 was 6.10.

As to `CS(=O)(=O)N1CC(O)([C@@H](S[C@@H]2O[C@H](CO)[C@H](O)[C@H](n3cc(-c4cc(F)c(F)c(F)c4)nn3)[C@H]2O)c2ccccc2C(F)(F)F)C1` [Example 2..57.112S., (2S,3R,4S,5R,6R)-2-(((S)-(3-Hydroxy-1-(methylsulfonyl)azetidin-3-yl)(2-(trifluoromethyl)phenyl)methyl)thio)-6-(hydroxymethyl)-4-(4-(3,4,5-trifluorophenyl)-1H-1,2,3-triazol-1-yl)tetrahydro-2H-pyran-3,5-diol], the pIC50 was 5.24.

In the case of `CC(C)Cc1c([C@@H](S[C@@H]2O[C@H](CO)[C@H](O)[C@H](n3cc(-c4cc(F)c(F)c(F)c4)nn3)[C@H]2O)C2(O)CCC(F)(F)CC2)noc1C1CC1` [2.44.131 R., (2S,3R,4S,5R,6R)-2-(((R)-(5-Cyclopropyl-4-isobutylisoxazol-3-yl)(4,4-difluoro-1-hydroxycyclohexyl)methyl)thio)-6-(hydroxymethyl)-4-(4-(3,4,5-trifluorophenyl)-1H-1,2,3-triazol-1-yl)tetrahydro-2H-pyran-3,5-diol], the pIC50 was 7.30.

Regarding `CC(C)(O)C(S[C@@H]1O[C@H](CO)[C@H](O)[C@H](n2cc(-c3cc(F)c(F)c(F)c3)nn2)[C@H]1O)c1ccccc1Cl` (stereo partly drawn) [Example 2.31.111., (2S,3R,4S,5R,6R)-2-((1-(2-Chlorophenyl)-2-hydroxy-2-methylpropyl)thio)-6-(hydroxymethyl)-4-(4-(3,4,5-trifluorophenyl)-1H-1,2,3-triazol-1-yl)tetrahydro-2H-pyran-3,5-diol], the pIC50 was 6.39.

On to `CS(=O)(=O)N1CCC(O)(C(S[C@@H]2O[C@H](CO)[C@H](O)[C@H](n3cc(-c4cc(F)c(F)c(F)c4)nn3)[C@H]2O)c2ccccc2C(F)(F)F)CC1` (stereo partly drawn) [Example 2.47.112., (2S,3R,4S,5R,6R)-2-(((4-Hydroxy-1-(methylsulfonyl)piperidin-4-yl)(2-(trifluoromethyl)phenyl)methyl)thio)-6-(hydroxymethyl)-4-(4-(3,4,5-trifluorophenyl)-1H-1,2,3-triazol-1-yl)tetrahydro-2H-pyran-3,5-diol], for which the negative-log IC50 (pIC50) was 7.15.

Consider `CS(=O)(=O)N1CC(O)([C@H](S[C@@H]2O[C@H](CO)[C@H](O)[C@H](n3cc(-c4cc(F)c(F)c(F)c4)nn3)[C@H]2O)c2ccccc2C(F)(F)F)C1` [Example 2..57.112R., (2S,3R,4S,5R,6R)-2-(((R)-(3-Hydroxy-1-(methylsulfonyl)azetidin-3-yl)(2-(trifluoromethyl)phenyl)methyl)thio)-6-(hydroxymethyl)-4-(4-(3,4,5-trifluorophenyl)-1H-1,2,3-triazol-1-yl)tetrahydro-2H-pyran-3,5-diol], for which the pIC50 is 6.77.

As to `CS(=O)(=O)N1CC(O)(C(S[C@@H]2O[C@H](CO)[C@H](O)[C@H](n3cc(-c4cc(F)c(F)c(F)c4)nn3)[C@H]2O)c2ccccc2C(F)(F)F)C1` (stereo partly drawn) [Example 2..57.112., (2S,3R,4S,5R,6R)-2-(((3-Hydroxy-1-(methylsulfonyl)azetidin-3-yl)(2-(trifluoromethyl)phenyl)methyl)thio)-6-(Hydroxymethyl)-4-(4-(3,4,5-trifluorophenyl)-1H-1,2,3-triazol-1-yl)tetrahydro-2H-pyran-3,5-diol], the pIC50 was 6.66.

Still in this assay, the particulars now being: Table 5; read-out: IC50 (Gal-3 inhibition).
With `OC[C@H]1O[C@@H](S[C@H](c2ccccc2Cl)C2(O)CCC(F)(F)CC2)[C@H](O)[C@@H](n2cc(-c3cc(F)c(F)c(F)c3)nn2)[C@H]1O` [Example 2.44.111R, (2S,3R,4S,5R,6R)-2-(((R)-(2-Chlorophenyl)(4,4-difluoro-1-hydroxycyclohexyl)methyl)thio)-6-(hydroxymethyl)-4-(4-(3,4,5-trifluorophenyl)-1H-1,2,3-triazol-1-yl)tetrahydro-2H-pyran-3,5-diol], the negative logarithm of the IC50 (pIC50) was 7.05.

With `OC[C@H]1O[C@@H](S[C@@H](c2ccccc2Cl)C2(O)CCC(F)(F)CC2)[C@H](O)[C@@H](n2cc(-c3cc(F)c(F)c(F)c3)nn2)[C@H]1O` [Example 2.44.111S, (2S,3R,4S,5R,6R)-2-(((S)-(2-Chlorophenyl)(4,4-difluoro-1-hydroxycyclohexyl)methyl)thio)-6-(hydroxymethyl)-4-(4-(3,4,5-trifluorophenyl)-1H-1,2,3-triazol-1-yl)tetrahydro-2H-pyran-3,5-diol], the pIC50 is 4.74.

Staying with this assay, now noted: Table 9; 2-OMe-Gal inhibitors; read-out: IC50 (Gal-3 inhibition).
Take `CO[C@@H]1[C@@H](n2cc(-c3cc(F)c(F)c(F)c3)nn2)[C@@H](O)[C@@H](CO)O[C@H]1S[C@H](c1ccccc1C(F)(F)F)[C@]1(O)CCOC(C)(C)C1` [Example 2.43.112RS.I, (2R,3R,4S,5R,6S)-6-(((R)-((S)-4-Hydroxy-2,2-dimethyltetrahydro-2H-pyran-4-yl)(2-(trifluoromethyl)phenyl)methyl)thio)-2-(hydroxymethyl)-5-methoxy-4-(4-(3,4,5-trifluorophenyl)-1H-1,2,3-triazol-1-yl)tetrahydro-2H-pyran-3-ol]: the pIC50 is 6.85.

Staying with this assay, now noted: Table 11; read-out: IC50 (Gal-3 inhibition).
In the case of `CO[C@@H]1[C@@H](n2cc(-c3cc(F)c(F)c(F)c3)nn2)[C@@H](O)[C@@H](CO)O[C@H]1SC(c1ncccc1C)C1(O)CCC2(CCOCC2)CC1` (stereo partly drawn) [Example 2.72.126.I, 9-((((2S,3R,4S,5R,6R)-5-Hydroxy-6-(hydroxymethyl)-3-methoxy-4-(4-(3,4,5-trifluorophenyl)-1H-1,2,3-triazol-1-yl)tetrahydro-2H-pyran-2-yl)thio)(3-methylpyridin-2-yl)methyl)-3-oxaspiro[5.5]undecan-9-ol], the pIC50 was 6.89.

Consider `CO[C@@H]1[C@@H](n2cc(-c3cc(F)c(F)c(F)c3)nn2)[C@@H](O)[C@@H](CO)O[C@H]1S[C@@H](c1ncccc1C)[C@@]1(O)CCOC(C)(C)C1` [Example 2.43.126SR.I., (2R,3R,4S,5R,6S)-6-(((S)-((R)-4-Hydroxy-2,2-dimethyltetrahydro-2H-pyran-4-yl)(3-methylpyridin-2-yl)methyl)thio)-2-(hydroxymethyl)-5-methoxy-4-(4-(3,4,5-trifluorophenyl)-1H-1,2,3-triazol-1-yl)tetrahydro-2H-pyran-3-ol], for which the pIC50 was 5.46.

On to `CO[C@@H]1[C@@H](n2cc(-c3cc(F)c(F)c(F)c3)nn2)[C@@H](O)[C@@H](CO)O[C@H]1S[C@@H](c1ncccc1C)[C@]1(O)CCOC(C)(C)C1` [Example 2.43.126SS.I., (2R,3R,4S,5R,6S)-6-(((S)-((S)-4-Hydroxy-2,2-dimethyltetrahydro-2H-pyran-4-yl)(3-methylpyridin-2-yl)methyl)thio)-2-(hydroxymethyl)-5-methoxy-4-(4-(3,4,5-trifluorophenyl)-1H-1,2,3-triazol-1-yl)tetrahydro-2H-pyran-3-ol], for which the pIC50 was 5.72.

The same assay, now with this note: Table 14; read-out: IC50 (Gal-3 inhibition).
On to `CO[C@@H]1[C@@H](n2cc(-c3cnc(F)c(C)c3)nn2)[C@@H](O)[C@@H](CO)O[C@H]1SC(c1ncccc1C)C1(O)CCC(F)(F)CC1` (stereo partly drawn) [Example 24.44.126.I., (2R,3R,4S,5R,6S)-6-(((4,4-Difluoro-1-hydroxycyclohexyl)(3-methylpyridin-2-yl)methyl)thio)-4-(4-(6-fluoro-5-methylpyridin-3-yl)-1H-1,2,3-triazol-1-yl)-2-(hydroxymethyl)-5-methoxytetrahydro-2H-pyran-3-ol], for which the pIC50 is 6.48.

With `CO[C@@H]1[C@@H](n2cc(-c3ccc(F)c(F)c3F)nn2)[C@@H](O)[C@@H](CO)O[C@H]1SC(c1ncccc1C)C1(O)CCC(F)(F)CC1` (stereo partly drawn) [Example 21.44.126.I., (2R,3R,4S,5R,6S)-6-(((4,4-Difluoro-1-hydroxycyclohexyl)(3-methylpyridin-2-yl)methyl)thio)-2-(hydroxymethyl)-5-methoxy-4-(4-(2,3,4-trifluorophenyl)-1H-1,2,3-triazol-1-yl)tetrahydro-2H-pyran-3-ol], the pIC50 was 7.22.
